Test results published in patent US20220378707A1, “1-(((2S,3S,4S)-3-ETHYL-4-FLUORO-5-OXOPYRROLIDIN-2-YL)METHOXY)-7-METHOXYISOQUINOLINE-6-CARBOXAMIDE COMBINATIONS AND ORAL DOSAGE FORMS” (Pfizer Inc., priority 2019, published 2022).
Entries after “also recorded” stand apart in the source; their conditions may differ.

How the values were obtained:
[1] = system: PBMC and HUVEC+T cell receptor (TCR) ligands; assay: BioMAP SAg system; type: cell-based, human; conditions: for Inhibition of biomarker readouts in the SAg system: T cell-driven Th1 vascular inflammation, concentrations of FIGS. 12-16
Text: (§1) The BioMAP systems consist of human primary cell-based systems designed to model different aspects of the human body in an in vitro format. The 12 systems tested characterized the test compounds across a broad set of systems modeling various human disease states. BioMAP systems were constructed with one or more primary cell types from healthy human donors, with stimuli (such as cytokines or growth factors) added to capture relevant signaling networks that naturally occur in human tissue or pathological conditions. Vascular biology was modeled in both a Th1 (3C system) and a Th2 (4H system) inflammatory environment, as well as in a Th1 inflammatory state specific to arterial smooth muscle cells (CASM3C system). Additional systems recapitulated aspects of the systemic immune response that included monocyte-driven Th1 inflammation (LPS system) or T cell stimulation (SAg system), chronic Th1 inflammation driven by macrophage activation (IMphg system) and the T cell-dependent activation of B cells that occurs in germinal centers (BT system). The BE3C system (Th1) and the BF4T system (Th2) represented airway inflammation of the lung, while the MyoF system modeled myofibroblast-lung tissue remodeling. Lastly, skin biology was addressed in the KF3CT system modeled Th1 cutaneous inflammation and the HDF3CGF system modeled wound healing.
(§2) All cells were from a pool of multiple donors (n=2-6), commercially purchased and handled according to the recommendations of the manufacturers. Human blood derived CD14+ monocytes were differentiated into macrophages in vitro before being added to the IMphg system. Abbreviations were used as follows: human umbilical vein endothelial cells (HUVEC), peripheral blood mononuclear cells (PBMC), human neonatal dermal fibroblasts (HDFn), B cell receptor (BCR), T cell receptor (TCR) and toll-like receptor (TLR). Cell types and stimuli used in each system were as follows:
(§3) 3C system [HUVEC+(IL-1β, TNFα and IFNγ)]; 4H system [HUVEC+(IL-4 and histamine)]; LPS system [PBMC and HUVEC+LPS (TLR4 ligand)]; SAg system [PBMC and HUVEC+T cell receptor (TCR) ligands]; BT system [CD19+B cells and PBMC+(α-IgM and TCR ligands)]; BF4T system [bronchial epithelial cells and HDFn+(TNFα and IL-4)]; BE3C system [bronchial epithelial cells+(IL-1p, TNFα and IFNγ)]; CASM3C system [coronary artery smooth muscle cells+(IL-1p, TNFα and IFNγ)]; HDF3CGF system [HDFn+(IL-1β, TNFα, IFNγ, EGF, bFGF and PDGF-BB)]; KF3CT system [keratinocytes and HDFn+(IL-1β, TNFα and IFNγ)]; MyoF system [differentiated lung myofibroblasts+(TNFα and TGFβ)]; and IMphg system [HUVEC and M1 macrophages+Zymosan (TLR2 ligand)].
(§4) Systems were derived from either single cell types or co-culture systems. Adherent cell types were cultured in 96 or 384-well plates until confluence, followed by the addition of PBMC (SAg and LPS systems). The BT system consisted of CD19+B cells co-cultured with PBMC and stimulated with a BCR activator and low levels of TCR stimulation. Test agents were prepared in DMSO (final concentration <0.1%) and were added 1 hour before stimulation, and remained in culture for 24 hours or as otherwise indicated (48-hrs, MyoF system; 72-hrs, BT system (soluble readouts); 168-hrs, BT system (secreted IgG)). Each plate contained drug controls (e.g., legacy control test agent colchicine at 1.1 μM), negative controls (e.g., non-stimulated conditions) and vehicle controls (e.g., 0.1% DMSO) appropriate for each system. Direct ELISA was used to measure biomarker levels of cell-associated and cell membrane targets. Soluble factors from supernatants were quantified using either HTRF® detection, bead-based multiplex immunoassay or capture ELISA. Overt adverse effects of test agents on cell proliferation and viability (cytotoxicity) were detected by sulforhodamine B (SRB) staining, for adherent cells, and alamarBlue® reduction for cells in suspension.

[2] = system: PBMC and HUVEC+LPS (TLR4 ligand); assay: BioMAP LPS system; type: cell-based, human; conditions: monocyte-driven Th1 inflammation; for Inhibition of biomarker readouts in the LPS system: concentrations of FIGS. 12-14; for Increased biomarker readouts in the LPS system: tofacitinib 37-1000 nM
Text: as §1, §2, §3
as §4, with “suspension. […]” for “suspension.”

[3] = system: CD19+B cells and PBMC+(α-IgM and TCR ligands); assay: BioMAP BT system; type: cell-based, human; conditions: for Inhibition of biomarker readouts in the BT system / Increased biomarker readouts in the BT system: T cell dependent B cell activation; for Inhibition of biomarker readouts in the BT system: concentrations of FIGS. 12-14; for Increased biomarker readouts in the BT system: tofacitinib 37-1000 nM
Text: as §1, §2, §3
as §4, with “suspension. […]” for “suspension.”

[4] = system: HDFn+(IL-1β, TNFα, IFNγ, EGF, bFGF and PDGF-BB); assay: BioMAP HDF3CGF system; type: cell-based, human; conditions: for Inhibition of biomarker readouts in the HDF3CGF system: wound healing, Th1-type inflammation, concentrations of FIGS. 12-16
Text: as §1, §2, §3
as §4, with “The BT system consisted of CD19+B cells co-cultured with PBMC and stimulated with a BCR activator and low levels of TCR stimulation.” left out, “Each plate contained drug controls (e.g., legacy control test agent colchicine at 1.1 μM), negative controls (e.g., non-stimulated conditions) and vehicle controls (e.g., 0.1% DMSO) appropriate for each system. Direct ELISA was used to measure biomarker levels of cell-associated and cell membrane targets.” left out

[5] = system: HUVEC+(IL-1β, TNFα and IFNγ); assay: BioMAP 3C system; type: cell-based, human; conditions: agent alone; PF-06650833 19, 56, 170, 500 nM; tofacitinib 37, 110, 330, 1000 nM
Text: (§5) The BioMAP systems consist of human primary cell-based systems designed to model different aspects of the human body in an in vitro format. The 12 systems tested characterized the test compounds across a broad set of systems modeling various human disease states. BioMAP systems were constructed with one or more primary cell types from healthy human donors, with stimuli (such as cytokines or growth factors) added to capture relevant signaling networks that naturally occur in human tissue or pathological conditions. Vascular biology was modeled in both a Th1 (3C system) and a Th2 (4H system) inflammatory environment, as well as in a Th1 inflammatory state specific to arterial smooth muscle cells (CASM3C system). […]
(§6) Systems were derived from either single cell types or co-culture systems. […] Test agents were prepared in DMSO (final concentration <0.1%) and were added 1 hour before stimulation, and remained in culture for 24 hours or as otherwise indicated (48-hrs, MyoF system; 72-hrs, BT system (soluble readouts); 168-hrs, BT system (secreted IgG)). […] Soluble factors from supernatants were quantified using either HTRF® detection, bead-based multiplex immunoassay or capture ELISA. Overt adverse effects of test agents on cell proliferation and viability (cytotoxicity) were detected by sulforhodamine B (SRB) staining, for adherent cells, and alamarBlue® reduction for cells in suspension.

[6] = 13 week toxicology study in rat: exposure interaction of tofacitinib and PF-06650833; type: in vivo
[7] = system: HUVEC+(IL-4 and histamine); assay: BioMAP 4H system; type: cell-based, human; conditions: Th2 vascular inflammation, tofacitinib 37-1000 nM
Text: as §5, §6

[8] = system: keratinocytes and HDFn+(IL-1β, TNFα and IFNγ); assay: BioMAP KF3CT system; type: cell-based, human; conditions: Th1 cutaneous inflammation; tofacitinib 37-1000 nM
Text: as §5, §6

[9] = listed as 1-(((2S,3S,4S)-3-Ethyl-4-fluoro-5-oxopyrrolidin-2-yl)methoxy)-7-methoxyisoquinol
[10] = listed as 1-(((2S,3S,4S)-3-ethyl-4-fluoro-5-oxopyrrolidin-2-yl)methoxy)-7-methoxyisoquinol

CC[C@@H]1[C@H](F)C(=O)N[C@@H]1COc1nccc2cc(C(N)=O)c(OC)cc12 [PF-06650833, 1-(((2S,3S,4S)-3-Ethyl-4-fluoro-5-oxopyrrolidin-2-yl)methoxy)-7-methoxyisoquinoline-6-carboxamide]
Inhibition of biomarker readouts in the SAg system [1]: no activity
Inhibition of biomarker readouts in the LPS system [2, 9]: primarily active across all tested concentrations; also recorded: MCP-1, VCAM-1, E-selectin, IL-8, IL-1a, sTNFa, sPGE2, CD40, CD69, M-CSF, and TF; also recorded: strongly inhibited activation responses
Inhibition of biomarker readouts in the LPS system [2, 10]: PGE2, TNFα, IL-1α, and MCP1; also recorded: strongly and selectively inhibited monocyte activation responses; also recorded: MCP-1, VCAM-1, CD40, E-selectin, CD69, IL-8, IL-1α, M-CSF, sPGE2, and sTNFα
Inhibition of biomarker readouts in the BT system [3, 9]: little effect; also recorded: modest inhibition of IL-6 and sIL-17F
Inhibition of biomarker readouts in the BT system [3, 10]: sIL-17F and sTNFα
MIG, Log10 molar ratio in the HDF3CGF system ([4]; PF-06650833 at 170 nM alone): −0.04121
Inhibition of biomarker readouts in the HDF3CGF system [4]: modest inhibition VCAM-1, Col-III, and TIMP2
Activity in the 3C system [5]: no activity
Effects of 10 mg/kg tofacitinib on PF-06650833 exposure ([6]; female rats, 50 mg/kg PF-06650833): no significant effects
Effects of 10 mg/kg tofacitinib on PF-06650833 exposure ([6]; male rats, 100 mg/kg PF-06650833): no significant effects

C[C@@H]1CCN(C(=O)CC#N)C[C@@H]1N(C)c1ncnc2[nH]ccc12 [tofacitinib, 3-((3R,4R)-4-Methyl-3-(methyl(7H-pyrrolo[2,3-d]pyrimidin-4-yl)amino)piperidin-1-yl)-3-oxopropanenitrile]
Inhibition of biomarker readouts in the SAg system [1]: CD38 and CD69 and modestly inhibited CD69
Inhibition of biomarker readouts in the SAg system ([1]; listed as Tofacitinib): CD38 and CD69
Proliferation of T cells in the SAg system ([1]; concentrations of FIGS. 13-14): antiproliferative activity
Increased biomarker readouts in the LPS system [2]: increased levels of IL-1α, secreted PGE2 and secreted TNFα; also recorded: stimulated production of IL-1α, sPGE2 and sTNFα
Increased biomarker readouts in the LPS system ([2]; listed as Tofacitinib): IL-1α, sPEG2, and sTNFα
Inhibition of biomarker readouts in the 4H system [7]: MCP-1 and Eto3 and VCAM-1 and P-selectin
Inhibition of biomarker readouts in the 4H system ([7]; listed as Tofacitinib): active over all tested concentrations; also recorded: MCP-1, Eot3, VCAM-1, P-selectin
Inhibition of biomarker readouts in the BT system [3]: sIgG, sIL-17F, sIL-2, IL-6, and sTNFα; also recorded: strongly inhibited responses
Inhibition of biomarker readouts in the BT system ([3]; listed as Tofacitinib): active over all tested concentrations; also recorded: sIgG, sIL-17F, sIL-6, and sTNFα
Increased biomarker readouts in the BT system [3]: increase in secreted IL-2
Increased biomarker readouts in the BT system ([3]; listed as Tofacitinib): sIL-2
B cell proliferation in the BT system ([3]; concentrations of FIGS. 13-14): B cell anti-proliferative activity
Inhibition of biomarker readouts in the HDF3CGF system [4]: ITAC and VCAM-1
Inhibition of biomarker readouts in the HDF3CGF system ([4]; listed as Tofacitinib): VCAM-1 and ITAC
Inhibition of biomarker readouts in the KF3CT system [8]: MCP-1
Activity in the 3C system [5]: no activity
